Reference: patent publication US20130254944A1, “Herbicide Tolerant Soybeans and Methods of Use” (PIONEER HI BRED INTERNATIONAL INC, priority 2012, published 2013)

How the values were obtained:
Format in all cases: in vivo
[1] = system: soybean having the Als1 mutation; test: Greenhouse postemergence test of ALS-inhibiting herbicides, soybean with Als1 mutation; details: for Avg response (% phytotoxicity), Trait Als1: Table 2
Procedure: (§1) Soybean lines having wild type als1 & 2 genes, the Als1 mutation, the Als2 mutation, or both the Als1 and Als2 mutations were evaluated for their response to various herbicides. Two seeds from each line were planted into 4-inch pots containing Redi-Earth potting mix (Sun Gro Horticulture Canada Ltd. 52130 RR65, Seba Beach, Alberta TOE 2B0), with two replications planted for each treatment. Pots were placed in flats at 15 pots/flat, and the resulting plants were grown in a greenhouse environment supplemented with lighting (16 hr photoperiod) for the duration of the test. Selected herbicides representing the mode of action that inhibits the acetolactate synthase enzyme, also known as the acetohydroxyacid synthase enzyme, were applied postemergence to soybean when soybean plants were at the V2 growth stage, which is the stage at which the first two trifoliolate leaves were expanded.
(§2) Eleven active ingredients representing the five chemical families with herbicidal activity on the acetolactate synthase enzyme were tested. These herbicides can cause a phytotoxic response in wild type soybean plants. The five chemical families tested were sulfonylaminocarbonyltriazolinone (also known as triazolinone), imidazolinone, sulfonylurea, pyrimidinylthiobenzoate, and triazolopyrimidine. Application rates ranged from 0.5 times to eight times the currently labeled application rate for each active ingredient with spray application volume at 30 gallons/acre. The application rates tested were 0.5×, 1×, 2×, 4× and 8× the label rate for each herbicide. Herbicidal active ingredients were applied as formulated materials dispersed in water containing 0.25% nonionic surfactant (Trend® 90).
(§3) The test was evaluated by visually scoring plant phenotype 14 days after the herbicides were applied. Controls consisted of soybean plants of the same variety that received no herbicide treatments for each of all the varieties tested. Soybean response was recorded on a zero to 100 visual scale in which zero is no phytotoxic response and 100 is plant death fourteen days after the herbicides were applied. Soybean response (percent phytotoxicity) to postemergence applications of herbicides inhibiting the acetolactate synthase enzyme test results are shown in Table 1.
(§4) Results in Table 1 were evaluated using the isobole method for analyzing interactions. […] Here the biologically active agents that are being assessed for interaction (synergy) are gene mutations in soybean. The effectiveness of the genes in providing improved tolerance to ALS-inhibiting herbicides was assessed by applying increasing doses of herbicides to each soybean line with its mutation(s).
(§5) An isobole reduces a dose response surface in three dimensional space to a two dimensional plot by fixing a defined response level (e.g., 50% response). The isobole plot is a graph in the Cartesian plane with a straight line connecting the isoeffective rates of the individual components of the combination. This straight line represents expected responses for zero interactive combinations. The isoeffective rate used to create the isobole is often the EC50, the rate estimated to elicit 50% response, but other ECx values can be used. Since the isobole method is based on the potency of the components of the combination, an experimental design testing a range of rates expected to elicit the full range of responses (e.g., 0 to maximum response) is best. (Ferry et al. (2005) 2005 Conference on Applied Statistics in Agriculture Proceedings pp 33-50, Manhattan, Kans., Kansas State Univ.; Green and Streibig (1993) Herbicide Mixtures, pp 117-134 in Herbicide Bioassays, Streibig and Hudsk Eds, CRC, Boca Raton, Fla.).
(§6) Loglogistic dose response curves were fit to percent phytotoxicity response data using log 10 of dose (McCullagh and Nelder (1989) Generalized Linear Models, Chapman & Hall, London). Curves were fit using the logit link with normal errors. […]

[2] = system: soybean having the Als2 mutation; test: Greenhouse postemergence test of ALS-inhibiting herbicides, soybean with Als2 mutation; details: for Avg response (% phytotoxicity), Trait Als2: Table 2
Procedure: as §1, §2, §3, §4, §5, §6

[3] = system: soybean having both the Als1 and Als2 mutations; test: Greenhouse postemergence test of ALS-inhibiting herbicides and isobole analysis, soybean with Als1 and Als2 mutations; details: for Avg response (% phytotoxicity), Trait Als1 + Als2: Table 2
Procedure: as §1, §2, §3, §4, §5, §6

[4] = system: wild type soybean; test: Greenhouse postemergence test of ALS-inhibiting herbicides, wild type soybean
Procedure: as §1, §2, §3

[5] = 17.5 g ai/ha postemergence at V2, scored 14 days after application
[6] = 35 g ai/ha postemergence at V2, scored 14 days after application
[7] = 70 g ai/ha postemergence at V2, scored 14 days after application
[8] = 140 g ai/ha postemergence at V2, scored 14 days after application
[9] = 280 g ai/ha postemergence at V2, scored 14 days after application
[10] = rate of herbicide estimated to cause 10% phytotoxic response, loglogistic fit
[11] = 8.75 g ai/ha postemergence at V2, scored 14 days after application
[12] = rate of herbicide estimated to cause 50% phytotoxic response, loglogistic fit

SMILES | Soybean response (percent phytotoxicity), Als1 [1, 5] [%] | Avg response (% phytotoxicity), Trait Als1 ([1]; 17.5 g ai/ha) [%] | Soybean response (percent phytotoxicity), Als1 [1, 6] [%] | Avg response (% phytotoxicity), Trait Als1 ([1]; 35 g ai/ha) [%] | Soybean response (percent phytotoxicity), Als1 [1, 7] [%] | Avg response (% phytotoxicity), Trait Als1 ([1]; 70 g ai/ha) [%] | Soybean response (percent phytotoxicity), Als1 [1, 8] [%] | Avg response (% phytotoxicity), Trait Als1 ([1]; 140 g ai/ha) [%] | Soybean response (percent phytotoxicity), Als2 [2, 5] [%] | Avg response (% phytotoxicity), Trait Als2 ([2]; 17.5 g ai/ha) [%] | Soybean response (percent phytotoxicity), Als2 [2, 6] [%] | Avg response (% phytotoxicity), Trait Als2 ([2]; 35 g ai/ha) [%] | Soybean response (percent phytotoxicity), Als2 [2, 7] [%] | Avg response (% phytotoxicity), Trait Als2 ([2]; 70 g ai/ha) [%] | Soybean response (percent phytotoxicity), Als2 [2, 8] [%] | Avg response (% phytotoxicity), Trait Als2 ([2]; 140 g ai/ha) [%] | Soybean response (percent phytotoxicity), Als1 + Als2 [3, 5] [%] | Avg response (% phytotoxicity), Trait Als1 + Als2 ([3]; 17.5 g ai/ha) [%] | Soybean response (percent phytotoxicity), Als1 + Als2 [3, 6] [%] | Avg response (% phytotoxicity), Trait Als1 + Als2 ([3]; 35 g ai/ha) [%] | other results
COc1nn(C(=O)NS(=O)(=O)c2ccccc2OC(F)(F)F)c(=O)n1C [Flucarbazone] | 0 | 0 | 0 | 0 | 5 | 5 | 10 | 10 | 5 | 5 | 15 | 30 | 20 | 50 | 25 | 55 | 0 | 0 | 0 | 0 | Soybean response (percent phytotoxicity), Als1 [1, 9]: 10%; Avg response (% phytotoxicity), Trait Als1 ([1]; 280 g ai/ha): 10%; EC10, Als1 [1, 10]: 230.45 g ai/ha; Soybean response (percent phytotoxicity), Als2 [2, 9]: 30%; Avg response (% phytotoxicity), Trait Als2 ([2]; 280 g ai/ha): 60%; EC10, Als2 [2, 10]: 8.14 g ai/ha; Soybean response (percent phytotoxicity), Als1 + Als2 [3, 7]: 0%; Avg response (% phytotoxicity), Trait Als1 + Als2 ([3]; 70 g ai/ha): 0%; Soybean response (percent phytotoxicity), Als1 + Als2 [3, 8]: 0%; Avg response (% phytotoxicity), Trait Als1 + Als2 ([3]; 140 g ai/ha): 0%; Soybean response (percent phytotoxicity), Als1 + Als2 [3, 9]: 0%; Avg response (% phytotoxicity), Trait Als1 + Als2 ([3]; 280 g ai/ha): 0%; EC10, Als1 + Als2 [3, 10]: >280 g ai/ha; Soybean response (percent phytotoxicity), Wild type [4, 5]: 60%; Soybean response (percent phytotoxicity), Wild type [4, 6]: 80%; Soybean response (percent phytotoxicity), Wild type [4, 7]: 90%; Soybean response (percent phytotoxicity), Wild type [4, 8]: 98%; Soybean response (percent phytotoxicity), Wild type [4, 9]: 98%
CC(C)C1(C)N=C(c2ncccc2C(=O)O)NC1=O (stereo not shown) [Imazapyr] | 10 | 10 | 45 | 45 | 80 | 80 | 98 | 98 | 20 | 20 | 25 | 25 | 50 | 50 | 55 | 55 | 0 | 0 | 0 | 0 | Soybean response (percent phytotoxicity), Als1 [1, 11]: 0%; Avg response (% phytotoxicity), Trait Als1 ([1]; 8.75 g ai/ha): 0%; EC50, Als1 [1, 12]: 38.86 g ai/ha; Soybean response (percent phytotoxicity), Als2 [2, 11]: 5%; Avg response (% phytotoxicity), Trait Als2 ([2]; 8.75 g ai/ha): 5%; EC50, Als2 [2, 12]: 93.91 g ai/ha; Soybean response (percent phytotoxicity), Als1 + Als2 [3, 11]: 0%; Avg response (% phytotoxicity), Trait Als1 + Als2 ([3]; 8.75 g ai/ha): 0%; Soybean response (percent phytotoxicity), Als1 + Als2 [3, 7]: 40%; Avg response (% phytotoxicity), Trait Als1 + Als2 ([3]; 70 g ai/ha): 40%; Soybean response (percent phytotoxicity), Als1 + Als2 [3, 8]: 55%; Avg response (% phytotoxicity), Trait Als1 + Als2 ([3]; 140 g ai/ha): 55%; EC50, Als1 + Als2 [3, 12]: 112.81 g ai/ha; Soybean response (percent phytotoxicity), Wild type [4, 11]: 10%; Soybean response (percent phytotoxicity), Wild type [4, 5]: 40%; Soybean response (percent phytotoxicity), Wild type [4, 6]: 75%; Soybean response (percent phytotoxicity), Wild type [4, 7]: 90%; Soybean response (percent phytotoxicity), Wild type [4, 8]: 98%
